Data published in patent US20180015065A1, “METHODS OF TREATING UREA CYCLE DISORDERS” (Horizon Therapeutics, LLC, priority 2013, published 2018).
Several values for one entry are separate records, joined by “and”; a condition that tells them apart may be missing. Equal entries are not always repeated. Where two headings read alike, the source gives them in different places.

Columns and labels:
[1] = Spot urinary PAGN level by age group, all studies; type: in vivo, human; details: spot urine after overnight fast
Procedure: Subjects from all studies who had spot urine samples were divided into three age groups: less than 2 years of age; 2 to less than 6 years of age; and 6 years of age and older. Spot urine samples were collected from subjects after an overnight fast, and urinary PAGN levels were measured.

[2] = phase 1; dosages equivalent to the highest approved NaPBA dosage of 20 g/day; cited from earlier work
[3] = Spot urinary PAGN level by dose category, HPN-100-012 safety extension; type: in vivo, human; details: pediatric subjects under 6 years, spot urine at 0 hours after overnight fast
Procedure: Pediatric subjects under 6 years of age from the HPN-100-012 safety extension study were divided into three dosing groups: less than 6 mL/m^2, 6-10 mL/m^2, and greater than 10 mL/m^2. Spot urine samples were collected from subjects at 0 hours (i.e., after an overnight fast), and urinary PAGN levels were measured.

[4] = Spot urinary PAGN level by BSA group, all UCD studies and healthy volunteer study HPN-100-010; type: in vivo, human; details: spot urine at 24 hours after overnight fast
Procedure: (§1) Subjects from all UCD studies and the healthy volunteer study (HPN-100-010) were divided into two groups based on their BSA: less than or equal to 1.3 m^2 (≦1.3 m^2) and greater than 1.3 m^2 (>1.3 m^2). Spot urine samples were collected from subjects at 24 hours (i.e., after an overnight fast), and urinary PAGN levels were measured.

[5] = Spot urinary PAGN level by BSA group, subjects 2 years of age and older; type: in vivo, human
Procedure: as §1, with “Subjects in Example 4” for “Subjects”, “(HPN-100-010) who were 2 years of age and older” for “(HPN-100-010)”

ammonia = details: cited from earlier work
[6] = BSA > 1.3 m^2, spot urine at 24 hours after overnight fast
[7] = BSA ≦ 1.3 m^2, spot urine at 24 hours after overnight fast

O=C(CCCc1ccccc1)OCC(COC(=O)CCCc1ccccc1)OC(=O)CCCc1ccccc1 [HPN-100, glyceryl tri-[4-phenylbutyrate]]
U-PAGN, 10th percentile ([1]; age group 2-<6 years): 1717 µg/mL | U-PAGN, 25th percentile ([1]; age group 2-<6 years): 5146 µg/mL | U-PAGN, 75th percentile ([1]; age group 2-<6 years): 20603 µg/mL | U-PAGN, 90th percentile ([1]; age group 2-<6 years): 27728 µg/mL | U-PAGN, maximum ([1]; age group 2-<6 years): 43372 µg/mL | U-PAGN, mean ([1]; age group 2-<6 years): 13420 µg/mL | U-PAGN, median ([1]; age group 2-<6 years): 12114 µg/mL | U-PAGN, minimum ([1]; age group 2-<6 years): 119 µg/mL | U-PAGN, 10th percentile ([1]; age group <2 years): 3265 µg/mL | U-PAGN, 25th percentile ([1]; age group <2 years): 8996 µg/mL | U-PAGN, 75th percentile ([1]; age group <2 years): 25019 µg/mL | U-PAGN, 90th percentile ([1]; age group <2 years): 28028 µg/mL | U-PAGN, maximum ([1]; age group <2 years): 44298 µg/mL | U-PAGN, mean ([1]; age group <2 years): 17330 µg/mL | U-PAGN, median ([1]; age group <2 years): 17229 µg/mL | U-PAGN, minimum ([1]; age group <2 years): 348 µg/mL | U-PAGN, 10th percentile ([1]; age group ≧6 years): 1564 µg/mL | U-PAGN, 25th percentile ([1]; age group ≧6 years): 4032 µg/mL | U-PAGN, 75th percentile ([1]; age group ≧6 years): 13846 µg/mL | U-PAGN, 90th percentile ([1]; age group ≧6 years): 21633 µg/mL | U-PAGN, maximum ([1]; age group ≧6 years): 60960 µg/mL | U-PAGN, mean ([1]; age group ≧6 years): 10103 µg/mL | U-PAGN, median ([1]; age group ≧6 years): 7185 µg/mL | U-PAGN, minimum ([1]; age group ≧6 years): 642 µg/mL | Safety of administration [2]: established the safety | Urinary PAGN, 10th percentile ([3]; dose 6-10 mL/m^2): 1288 µg/mL | Urinary PAGN, 25th percentile ([3]; dose 6-10 mL/m^2): 3053 µg/mL | Urinary PAGN, 75th percentile ([3]; dose 6-10 mL/m^2): 20796 µg/mL | Urinary PAGN, 90th percentile ([3]; dose 6-10 mL/m^2): 24429 µg/mL | Urinary PAGN, mean ([3]; dose 6-10 mL/m^2): 12313 µg/mL | Urinary PAGN, median ([3]; dose 6-10 mL/m^2): 12144 µg/mL | Urinary PAGN, 10th percentile ([3]; dose <6 mL/m^2): 643 µg/mL | Urinary PAGN, 25th percentile ([3]; dose <6 mL/m^2): 1256 µg/mL | Urinary PAGN, 75th percentile ([3]; dose <6 mL/m^2): 14290 µg/mL | Urinary PAGN, 90th percentile ([3]; dose <6 mL/m^2): 20797 µg/mL | Urinary PAGN, mean ([3]; dose <6 mL/m^2): 8353 µg/mL | Urinary PAGN, median ([3]; dose <6 mL/m^2): 3298 µg/mL | Urinary PAGN, 10th percentile ([3]; dose >10 mL/m^2): 264 µg/mL | Urinary PAGN, 25th percentile ([3]; dose >10 mL/m^2): 6990 µg/mL | Urinary PAGN, 75th percentile ([3]; dose >10 mL/m^2): 26247 µg/mL | Urinary PAGN, 90th percentile ([3]; dose >10 mL/m^2): 28084 µg/mL | Urinary PAGN, mean ([3]; dose >10 mL/m^2): 16842 µg/mL | Urinary PAGN, median ([3]; dose >10 mL/m^2): 17089 µg/mL | U-PAGN, 5th percentile ([4]; BSA > 1.3 m^2): 3379.24 µg/mL | U-PAGN, 10th percentile ([4]; BSA > 1.3 m^2): 4078.79 µg/mL | U-PAGN, 25th percentile ([4]; BSA > 1.3 m^2): 5259 µg/mL and 5259.01 µg/mL | U-PAGN, 50th percentile ([4]; BSA > 1.3 m^2): 7748.84 µg/mL | U-PAGN, 75th percentile ([4]; BSA > 1.3 m^2): 11916.08 µg/mL | U-PAGN, 90th percentile ([4]; BSA > 1.3 m^2): 15993.51 µg/mL | U-PAGN, 95th percentile ([4]; BSA > 1.3 m^2): 20320.32 µg/mL | U-PAGN, maximum ([4]; BSA > 1.3 m^2): 30304.04 µg/mL | U-PAGN, mean ([4]; BSA > 1.3 m^2): 9058.68 µg/mL | U-PAGN, minimum ([4]; BSA > 1.3 m^2): 1157.49 µg/mL | U-PAGN, 5th percentile ([4]; BSA ≦ 1.3 m^2): 1061.84 µg/mL | U-PAGN, 10th percentile ([4]; BSA ≦ 1.3 m^2): 3645.97 µg/mL | U-PAGN, 25th percentile ([4]; BSA ≦ 1.3 m^2): 8390 µg/mL and 8390.07 µg/mL | U-PAGN, 50th percentile ([4]; BSA ≦ 1.3 m^2): 17075.13 µg/mL | U-PAGN, 75th percentile ([4]; BSA ≦ 1.3 m^2): 25465.73 µg/mL | U-PAGN, 90th percentile ([4]; BSA ≦ 1.3 m^2): 30830 µg/mL | U-PAGN, 95th percentile ([4]; BSA ≦ 1.3 m^2): 35516.41 µg/mL | U-PAGN, maximum ([4]; BSA ≦ 1.3 m^2): 44298.26 µg/mL | U-PAGN, mean ([4]; BSA ≦ 1.3 m^2): 17547.48 µg/mL | U-PAGN, minimum ([4]; BSA ≦ 1.3 m^2): 119.47 µg/mL | U-PAGN, 5th percentile [5, 6]: 3379.24 µg/mL | U-PAGN, 10th percentile [5, 6]: 4078.79 µg/mL | U-PAGN, 25th percentile [5, 6]: 5259 µg/mL and 5259.01 µg/mL | U-PAGN, 75th percentile [5, 6]: 11916.08 µg/mL | U-PAGN, 90th percentile [5, 6]: 15993.51 µg/mL | U-PAGN, 95th percentile [5, 6]: 20320.32 µg/mL | U-PAGN, maximum [5, 6]: 30304.04 µg/mL | U-PAGN, mean [5, 6]: 9058.68 µg/mL | U-PAGN, median [5, 6]: 7748.84 µg/mL | U-PAGN, minimum [5, 6]: 1157.49 µg/mL | U-PAGN, 5th percentile [5, 7]: 621.6 µg/mL | U-PAGN, 10th percentile [5, 7]: 3479.50 µg/mL | U-PAGN, 25th percentile [5, 7]: 7412 µg/mL and 7412.48 µg/mL | U-PAGN, 75th percentile [5, 7]: 23635.08 µg/mL | U-PAGN, 90th percentile [5, 7]: 29835.07 µg/mL | U-PAGN, 95th percentile [5, 7]: 33943.83 µg/mL | U-PAGN, maximum [5, 7]: 43372.15 µg/mL | U-PAGN, mean [5, 7]: 16186.11 µg/mL | U-PAGN, median [5, 7]: 15869.85 µg/mL | U-PAGN, minimum [5, 7]: 119.5 µg/mL | Mean ammonia values (ammonia; HPN-100-012 safety extension, pediatric UCD patients under six years): within normal limits | Ammonia control compared with NaPBA (ammonia; phase 2 HPN-100-005, 11 pediatric UCD patients age six years and up, PBA equimolar dosage): at least equivalent to NaPBA | Ammonia control compared with NaPBA (ammonia; phase 2 studies overall, equivalent dosages): at least equal to NaPBA | Ammonia control compared with NaPBA (ammonia; phase 3 HPN-100-006, 45 adult UCD patients, PBA equivalent dosage): non-inferior to NaPBA | Mean ammonia levels (ammonia; phase 3 extended dosing HPN-100-007 and HPN-100-005 safety extension, adult and pediatric UCD subjects): within normal limit
